# Test results: patent US20260103465A1, “GLYCOGEN SYNTHASE KINASE 3 INHIBITORS AND USES THEREOF” (The Broad Institute, Inc., priority 2023, published 2026)
# Where two headings read alike, the source gives them in different places.
# Assays:
# [1] = target: T1, GSK3b (GST-full length GSK3b) (Homo sapiens, UniProt P49841); test: GSK3b TR-FRET kinase inhibition assay; assay type: biochemical
# T1 construct: GST-full length GSK3b: [SignalChem G08-9G]; purchased SignalChem G08-9G
# Outline: (§1)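 IC50 derived from normalized 665/615 TR-FRET signal (Tb anti-pSer641 antibody, streptavidin-d2), read after EDTA stop. Reaction: 1 nM GST-full-length enzyme, 30 min compound pre-incubation, 100 min at ambient temperature in Tris pH 7.5 with 1% DMSO, 200 nM biotinylated primed glycogen synthase peptide, ATP 2 μM to 1 mM.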
# MDR1 = test: MDR1/MDCK permeability assay; assay type: in vitro ADME; conditions: dog; for Papp A→B at 120 min, 5 µM: MDCK-MDR1, pH 7.4, A to B; for Papp B→A at 120 min, 5 µM: MDCK-MDR1, pH 7.4, B to A; for efflux ratio at 120 min, 5 µM: MDCK-MDR1, pH 7.4, Papp B-A/A-B, Mean, P. Ratio(B-A/A-B) Efflux Ratio
# Outline: (§2)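 Confluent MDR1-MDCK monolayers (7–11 days old), compound dosed at 5 μM in HBSSg (≤1% DMSO) apically or basolaterally, pH 7.4 both sides, receiver with 1% BSA, N=2. Both sides sampled at 120 min and quantified by LC-MS/MS; Papp in each direction, efflux ratio B-A/A-B and recovery reported.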
# [2] = Human liver microsomal stability; assay type: in vitro ADME; conditions: for half-life at 1 µM: human, liver microsomes; for Microsome Stability (Human) (DMPK_BIIB); Mean; in vitro t1/2: human liver microsomes, Table 4
# Outline: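 Compound incubated at 1 µM with human liver microsomes for 60 min at 37 °C, in duplicate. Percent remaining derived from compound level at 60 min relative to 0 min. Controls: microsomes with NADPH and no compound; compound with microsomes lacking NADPH.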
# [3] = target: T2, GSK3a (GST-full length GSK3a) (Homo sapiens, UniProt P49840); test: GSK3a TR-FRET kinase inhibition assay; assay type: biochemical
# T2 construct: GST-full length GSK3a [SignalChem G08-10G]; purchased SignalChem G08-10G
# Outline: as §1
# [4] = system: MDR1-MDCK cell monolayers; test: MDR1/MDCK permeability assay; assay type: in vitro ADME; conditions: Table 4; for MDCK Permeability (MDR1-MDCK); Mean; Papp(A-B) (10^−6 cm/s): A to B; for MDCK Permeability (MDR1-MDCK); Mean; Papp(B-A) (10^−6 cm/s): B to A; for MDCK Permeability (MDR1-MDCK); Mean; P. Ratio(B-A/A-B) Efflux Ratio: Papp B-A/A-B
# Outline: as §2
# [5] = 2 μM ATP, read-out: GSK3β TR-FRET 2 μM ATP GMean IC50
# [6] = 1 mM ATP, Table 4, read-out: GSK3β TR-FRET 1 mM ATP GMean IC50
# [7] = 4 μM ATP, read-out: GSK3α TR-FRET 4 μM ATP GMean IC50
# [8] = 1 mM ATP, Table 4, read-out: GSK3α TR-FRET 1 mM ATP GMean IC50
# T2 sequence (P49840 whole entry): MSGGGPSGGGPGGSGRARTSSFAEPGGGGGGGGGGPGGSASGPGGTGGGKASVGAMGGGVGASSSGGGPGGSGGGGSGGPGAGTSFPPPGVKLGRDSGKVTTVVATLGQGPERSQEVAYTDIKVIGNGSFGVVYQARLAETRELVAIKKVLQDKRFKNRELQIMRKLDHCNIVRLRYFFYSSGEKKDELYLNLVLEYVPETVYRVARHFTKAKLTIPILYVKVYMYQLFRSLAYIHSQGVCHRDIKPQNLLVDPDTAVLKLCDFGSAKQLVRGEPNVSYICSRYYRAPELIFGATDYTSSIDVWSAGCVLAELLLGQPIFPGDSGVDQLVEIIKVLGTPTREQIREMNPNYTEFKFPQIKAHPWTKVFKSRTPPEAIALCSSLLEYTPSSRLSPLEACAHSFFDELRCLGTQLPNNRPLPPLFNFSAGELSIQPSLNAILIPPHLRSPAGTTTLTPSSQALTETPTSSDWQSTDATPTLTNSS
# T1 sequence (P49841 whole entry): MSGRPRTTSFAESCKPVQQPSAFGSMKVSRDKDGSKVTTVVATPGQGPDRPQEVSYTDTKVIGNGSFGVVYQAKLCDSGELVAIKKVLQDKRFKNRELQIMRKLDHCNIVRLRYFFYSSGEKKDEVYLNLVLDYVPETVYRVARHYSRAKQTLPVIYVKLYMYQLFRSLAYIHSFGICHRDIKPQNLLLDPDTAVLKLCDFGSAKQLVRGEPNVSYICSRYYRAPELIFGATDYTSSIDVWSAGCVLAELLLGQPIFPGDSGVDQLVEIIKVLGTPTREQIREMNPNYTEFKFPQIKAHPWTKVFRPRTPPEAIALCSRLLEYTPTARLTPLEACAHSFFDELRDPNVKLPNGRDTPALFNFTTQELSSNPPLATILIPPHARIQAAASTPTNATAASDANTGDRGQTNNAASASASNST
SMILES,"IC50 [1, 5]",MDCK Permeability (MDR1-MDCK); Mean; Papp(A-B) (10^−6 cm/s) [4],MDCK Permeability (MDR1-MDCK); Mean; Papp(B-A) (10^−6 cm/s) [4],MDCK Permeability (MDR1-MDCK); Mean; P. Ratio(B-A/A-B) Efflux Ratio [4],Microsome Stability (Human) (DMPK_BIIB); Mean; in vitro t1/2 [2],"IC50 [3, 7]",further results
"CCC1(c2ccccc2)C2=C(CC(C)(C)CC2=O)Nc2ncc(C(F)(F)F)cc21 (single isomer, unassigned) [Compound 133A]",,,,,,,"IC50 ([1]; 10 μM ATP, read-out: GSK3b 10 μM ATP Average IC50): ≤ 100 nM; IC50 ([1]; 100 μM ATP, read-out: GSK3b 100 μM ATP Average IC50): 100 to 1000 nM; IC50 ([1]; 1 mM ATP, Table 3, read-out: GSK3b TR-FRET 1 mM ATP Average IC50): 1000 to 5000 nM; Papp A→B at 120 min, 5 µM (MDR1; Table 3): 14 ×10⁻⁶ cm/s; Papp A→B at 120 min, 5 µM (MDR1; Table 4): 13 ×10⁻⁶ cm/s; Papp B→A at 120 min, 5 µM (MDR1; Table 3): 8.2 ×10⁻⁶ cm/s; Papp B→A at 120 min, 5 µM (MDR1; Table 4): 19 ×10⁻⁶ cm/s; efflux ratio at 120 min, 5 µM (MDR1; Table 3, read-out: MIDCK Permeability (MDR1-MDCK)): 0.56; efflux ratio at 120 min, 5 µM (MDR1; Table 4, read-out: MDCK Permeability (MDR1-MDCK)): 1.5; half-life at 1 µM ([2]; Table 3, read-out: Microsome Stability (Human) (DMPK_BIIB), Mean, in vitro t1/2): 78 min; half-life at 1 µM ([2]; Table 4, read-out: Microsome Stability (Human) (DMPK_BIIB), Mean, in vitro t1/2): 1.4 min; IC50 ([3]; 10 μM ATP, read-out: GSK3a 10 μM ATP Average IC50): ≤ 100 nM; IC50 ([3]; 100 μM ATP, read-out: GSK3a 100 μM ATP Average IC50): 100 to 1000 nM; IC50 ([3]; 1 mM ATP, Table 3, read-out: GSK3a TR-FRET 1 mM ATP Average IC50): 1000 to 5000 nM"
"CCC1(c2cccc(-c3ccncc3C)c2)C2=C(CC(C)(C)CC2=O)Nc2ncccc21 (single isomer, unassigned) [Compound 1020B]",≤ 100 nM,14 10^−6 cm/s,24 10^−6 cm/s,1.8,6.4 min,≤ 100 nM,"IC50 [1, 6]: 1000 to 5000 nM; IC50 [3, 8]: 100 to 1000 nM"
"CCC1(c2cccc(-c3cn(C)nc3C)c2)C2=C(CC(C)(C)CC2=O)Nc2ncccc21 (single isomer, unassigned) [Compound 1023A]",≤ 100 nM,3.0 10^−6 cm/s,27 10^−6 cm/s,9.0,3.2 min,≤ 100 nM,"IC50 [1, 6]: 1000 to 5000 nM; IC50 [3, 8]: 100 to 1000 nM"
"CCC1(c2cccc(-c3cc(C)nn3C)c2)C2=C(CC(C)(C)CC2=O)Nc2ncccc21 (single isomer, unassigned) [Compound 1024B]",100 to 1000 nM,2.8 10^−6 cm/s,31 10^−6 cm/s,11,4.3 min,≤ 100 nM,
"CCC1(c2cccc(-c3ccnn3C)c2)C2=C(CC(C)(C)CC2=O)Nc2ncc(F)cc21 (single isomer, unassigned) [Compound 1025A]",≤ 100 nM,4.6 10^−6 cm/s,42 10^−6 cm/s,9.1,5.5 min,≤ 100 nM,
"CCC1(c2cccc(-c3cc(C)ncc3C)c2)C2=C(CC(C)(C)CC2=O)Nc2ncccc21 (single isomer, unassigned) [Compound 1027B]",100 to 1000 nM,5.1 10^−6 cm/s,30 10^−6 cm/s,5.8,3.1 min,≤ 100 nM,
"CCC1(c2cccc(-c3ccncc3C)c2)C2=C(CC(C)(C)CC2=O)Nc2ncc(F)cc21 (single isomer, unassigned) [Compound 1031B]",≤ 100 nM,6.2 10^−6 cm/s,22 10^−6 cm/s,3.6,19 min,≤ 100 nM,
"CCC1(c2cccc(-c3cn(C)nc3C)c2)C2=C(CC(C)(C)CC2=O)Nc2ncc(F)cc21 (single isomer, unassigned) [Compound 1032B]",≤ 100 nM,2.3 10^−6 cm/s,26 10^−6 cm/s,11,6.4 min,≤ 100 nM,
"CCC1(c2cccc(-c3ccnc4c3CCC4)c2)C2=C(CC(C)(C)CC2=O)Nc2ncccc21 (single isomer, unassigned) [Compound 1034B]",≤ 100 nM,7.6 10^−6 cm/s,25 10^−6 cm/s,3.3,4.1 min,≤ 100 nM,
"CCC1(c2cccc(-c3ccncc3OC)c2)C2=C(CC(C)(C)CC2=O)Nc2ncc(F)cc21 (single isomer, unassigned) [Compound 1037B]",≤ 100 nM,2.7 10^−6 cm/s,26 10^−6 cm/s,9.6,5.6 min,≤ 100 nM,
"CCC1(c2cccc(-c3cncn3C(C)C)c2)C2=C(CC(C)(C)CC2=O)Nc2ncc(F)cc21 (single isomer, unassigned) [Compound 1038A]",≤ 100 nM,0.90 10^−6 cm/s,41 10^−6 cm/s,43,16 min,≤ 100 nM,
"CCC1(c2cccc(-c3cncn3C(C)C)c2)C2=C(CC(C)(C)CC2=O)Nc2ncc(F)cc21 (single isomer, unassigned) [Compound 1038B]",100 to 1000 nM,0.70 10^−6 cm/s,34 10^−6 cm/s,49,13 min,≤ 100 nM,
"CCC1(c2cccc(-c3ccnc4c3CCCC4)c2)C2=C(CC(C)(C)CC2=O)Nc2ncccc21 (single isomer, unassigned) [Compound 1039B]",≤ 100 nM,6.6 10^−6 cm/s,22 10^−6 cm/s,3.3,4.6 min,≤ 100 nM,"IC50 [1, 6]: 1000 to 5000 nM; IC50 [3, 8]: 100 to 1000 nM"
